{
  "source": "patent US8945595B2",
  "about": "“Insect repellent and attractants” (The Regents of the University of California, priority 2009, dated 2015)",
  "key": {"[1]": {"tested_on": "CO2-sensitive ab1C neurons", "test": "single-sensillum electrophysiology, inhibition of CO2 response of ab1C neurons", "type": "cell-based, Drosophila", "details": "odourant 10^-2; 3-sec 0.3% CO2 with 1-sec odourant", "text": "Representative traces (top) and mean responses (bottom) from single-sensillum electrophysiology of ab1 sensilla in mutant flies; spikes represent activity of the ab1C neuron. a, 3-sec stimulus of odourant overlaid with a 1-sec application of 0.3% CO2. b, 3-sec stimulus of 0.3% CO2 overlaid with a 1-sec application of odourant. PO=paraffin oil, d4on=2,3-butanedione, 6ol=1-hexanol. n=6, error bars=s.e.m. Spikes per second were counted during the 1-sec stimulus period, and spontaneous activity subtracted. (For data in a and b, T-test, *P<0.001, **P<0.005, ***P<0.01, ****P<0.05) c, ab1C responses to indicated concentrations of CO2 in the presence of solvent (PO), 1-hexanol (6ol) or 2,3-butanedione (d4on). Odourants were tested at 10^−1 dilution. Firing rates were counted in consecutive 0.1-sec bins. n=3, error bars=s.e.m.\nBars indicate stimulus periods for 0.3% CO2, and overlays with 1-hexanol (6ol) or 2,3-butanedione (d4on) at the indicated concentrations. b, Recovery of ab1C responsiveness to a 0.5-sec, 0.3% CO2 stimulus applied every 30-sec after initial treatment with 3-sec stimulus of either d4on (10^−1) or paraffin oil (PO). n=5, error bars=s.e.m., (T-test, *P<0.005, **<0.01, ***P<0.05). c, CO2 response inhibition by structurally related compounds. A 3-sec stimulus of 0.3% CO2 was delivered in combination with 1-sec application of indicated odourant (10^−2) as in a. Percent increase or decrease in mean ab1C response was calculated relative to mean response of paraffin oil. n=5. d, Structures of CO2 and the 4 strongest antagonists. e-f, show mean odourant responses. e, Odourants were tested on ab1C neurons in Or83b2 flies at 10^−2 dilution in paraffin oil. Bars represent values after subtraction of mean response to paraffin oil. n=3. f, Odourants at indicated concentrations were tested on ab3A neuron in wild-type (wt) and ΔHalo (AH) mutants that lack Or22a and Or22b. Bars represent values after subtraction of spontaneous activity. n=5, error bars=s.e.m.\nFIG. 16 is a schematic diagram of an odour-delivery system to maintain steady concentration of CO2 in binary mixture experiments. Cartridges were made from Pasteur pipettes with pre-filled cotton wool inserts. […] odorant dissolved in paraffin oil (at specific concentrations) was applied to the cotton wool, and a 1.5 ml disposable tip attached to the open end to make the “odour cartridge”. A controlled “humidified air flow” was generated from a compressed air cylinder by bubbling through water, and passed through a glass tube, and released over the recording arena holding the Drosophila. A C-55 stimulus controller (Syntech) was used to generate an additional activated-charcoal filtered continuous air flow of 5 ml/sec which was delivered into the humidified airstream through a “blank cartridge” with the tip placed through a hole in the tube. To generate controlled odourant stimulus the C-55 stimulus controller was used to switch air flow from the “continuous air flow” to “odor stimulus flow” channel. An additional CO2 stimulus was pulsed through a separate system that delivered controlled pulses (variable 2.5 ml/sec-6.5 ml/sec) into the same humidified airstream, from either a 1%, 5% or 100% cylinder of CO2 (Airgas).\nExtracellular single-unit recordings were performed. Odourant stimuli were delivered via Pasteur pipette odour cartridges (see, FIG. 16). Chemicals were of the highest purity available, typically>99% (Sigma-Aldrich). All odourants were diluted in paraffin oil. A controlled volume of air 5 ml/sec was puffed through the odour cartridge containing vapours, and was delivered into a constant humidified airstream of 10 ml/sec that was passed over the fly antenna. […] CO2 stimulus was pulsed through a separate delivery system that delivered controlled pulses (variable 2.5 ml/sec-6.5 ml/sec) into the same humidified airstream, from either a 1%, 5% or 100% tank of CO2 (Airgas). […]"}, "[2]": {"tested_on": "CO2 sensitive neuron (A neuron) of peg sensillum", "test": "single-sensillum electrophysiology of maxillary palp peg sensillum, inhibition of CO2 response", "type": "cell-based, Culex quinquefasciatus", "details": "3-sec pre-exposure, 10^-1; 0.25% CO2 impulse every 30-sec over 6-min", "experimental": "(§1) FIG. 2 depicts electrophysiology measurements of the peg sensillum on the mosquito maxillary palp. The palp, indicated in brown in the schematic of the mosquito head, has several peg sensilla. Each peg sensilla (grey club-like structure in the center) contains three olfactory neurons A, B and C as indicated, of which the ‘A’ neuron gives a robust and specific increase in frequency of action potentials in response to a stimulus of CO2. Extracellular single-unit recordings are performed by inserting a glass microelectrode into the peg sensilla, and puffing an odor such as CO2 towards the mosquito maxillary palps. The signal is amplified to obtain the trace of action potentials.\n(§2) Action potential traces from the peg sensillum of the maxillary palp show spike amplitudes from three neurons, where the highest spike (from neuron A) indicates the CO2 response. A 3-sec stimulus of 0.3% CO2 (indicated by longer black bar), is overlaid with a 0.5-sec stimulus of candidate odors. […]\nThe recovery of the response to a 0.25% impulse (top) or 0.3% impulse (bottom) of CO2 was measured every 30-sec over a 6-min time period, after an initial 3-sec pre-exposure with (A) butanal (10^−1) (top), or (B) an ‘odor mixture’ consisting of 1-hexanol, pentanal, butanal, and 2,3-butanedione at 10^−2 concentration (bottom). […]"}, "[3]": {"tested_on": "CO2 sensitive neuron (A neuron) of peg sensillum", "test": "single-sensillum electrophysiology of maxillary palp peg sensillum, inhibition of CO2 response", "type": "cell-based, Aedes aegypti", "details": "3-sec pre-exposure, 10^-1; 0.3% CO2 impulse every 30-sec over 6-min", "experimental": "as §1\nas §2, with “bar),” for “bar), is”, “1-sec” for “0.5-sec”, “odor. CO2 and odor stimuli are applied in the same manner as discussed above.” for “candidate odors.”\nThe recovery of the response to a 0.3% impulse of CO2 was measured every 30-sec over a 6-min time period, after an initial 3-sec pre-exposure with (A) butanal (10^−1), or (B) an ‘odor mixture’ consisting of 1-hexanol, pentanal, butanal, and 2,3-butanedione at 10^−2 concentration. […]"}, "[4]": {"tested_on": "CO2 sensitive A neuron of peg sensillum", "test": "activation of CO2 sensitive neuron with a volatile odorant", "type": "cell-based, Culex quinquefasciatus", "details": "indicated concentrations", "experimental": "as §1\n(a) Action potential traces from the peg sensillum of the maxillary palp show spike amplitudes from three neurons, where the spikes with the largest amplitude belongs to the CO2 sensitive A neuron. (b) 1 sec of the indicated dilution 2,3-butanedione is puffed to Aedes aegypti. (c) 1 sec of indicated odor is puffed to Anopheles gambiae. (d) butanone and (e) 2,3-butanedione are given to Culex quinquefasciatus at the indicated concentrations. PO=paraffin oil. n=5. Baseline activity subtracted. Error bars indicate SEM."}},
  "note": "“Also recorded” adds a separate entry of the source.",
  "data": [
    {"smiles": "CCCC=O", "note": "[butanal]", "values": [
      {"measurement": "CO2 response inhibition by structurally related odourants", "setting": "[1]", "result": "effective inhibitors"},
      {"measurement": "CO2 response after pre-exposure", "setting": "[2]", "result": "long term reduction in CO2 response"},
      {"measurement": "CO2 response after pre-exposure", "setting": "[3]", "result": "long term reduction in CO2 response"}
    ]},
    {"smiles": "CCC(C)=O", "note": "[butanone]", "values": [
      {"measurement": "activation of CO2 sensitive neuron", "setting": "[4]", "result": "activation; also recorded: activator"}
    ]},
    {"smiles": "CCCCC=O", "note": "[pentanal]", "values": [
      {"measurement": "CO2 response inhibition by structurally related odourants", "setting": "[1]", "result": "effective inhibitors"}
    ]}
  ]
}
